As usually defined, the EC50 is the concentration at which the effect is half-maximal. A high value points to a less potent agent.

The record followed here is patent publication US11479539B2, “Small molecule modulators of the BTB domain of Keap1” (MedImmune Limited, priority 2017, dated 2022).

This test addresses Keap1 (Homo sapiens (Human), UniProt Q14145). The test is described as follows: HEK293 ARE luciferase assay. As to conditions: HEK-293 ARE firefly luciferase transiently transfected cells; 18 h incubation; mean of 1 to 20 individual measurements. Format: cell-based. In short, it runs like this: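 Keap1 inhibition read as Nrf2-driven luciferase rise: compounds dosed in 10 points up to 100 μM (0.3% DMSO) on HEK-293 ARE luciferase cells, 10,000/well, 18 h at 37 °C, then SteadyGlo luminescence. Scaled between DMSO vehicle and 30 μM tBHQ; values average 1-20 runs.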

Chain of Keap1 (Q14145 whole entry): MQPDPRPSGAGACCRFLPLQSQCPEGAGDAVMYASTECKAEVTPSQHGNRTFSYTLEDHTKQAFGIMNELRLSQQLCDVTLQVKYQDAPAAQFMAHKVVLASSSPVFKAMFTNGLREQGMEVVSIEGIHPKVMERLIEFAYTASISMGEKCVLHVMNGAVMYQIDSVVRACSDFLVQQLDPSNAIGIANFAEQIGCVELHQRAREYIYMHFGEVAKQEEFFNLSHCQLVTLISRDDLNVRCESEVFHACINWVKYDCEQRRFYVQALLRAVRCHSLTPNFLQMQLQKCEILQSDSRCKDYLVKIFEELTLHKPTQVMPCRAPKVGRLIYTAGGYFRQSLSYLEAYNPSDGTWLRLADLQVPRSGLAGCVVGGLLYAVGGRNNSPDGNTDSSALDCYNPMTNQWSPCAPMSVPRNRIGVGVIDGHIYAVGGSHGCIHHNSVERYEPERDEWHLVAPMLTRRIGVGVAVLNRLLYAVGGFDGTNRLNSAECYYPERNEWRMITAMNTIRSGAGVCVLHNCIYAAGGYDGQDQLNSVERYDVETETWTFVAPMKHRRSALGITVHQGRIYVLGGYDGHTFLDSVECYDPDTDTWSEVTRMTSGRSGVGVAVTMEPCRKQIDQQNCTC

`COC1(c2ncc(F)cc2F)C=C(C#N)C(=O)C2(CC2)C1` (single isomer, unassigned) [Compound 60, 7-(3,5-difluoropyridin-2-yl)-7-methoxy-4-oxospiro[2.5]oct-5-ene-5-carbonitrile]: the EC50 was found to be 153 nM. This lies in the sub-micromolar range.
`CCCc1cccnc1C1(OC)C=C(C#N)C(=O)C(C)(C)C1` (stereo not drawn) [Compound 169, 3-methoxy-5,5-dimethyl-6-oxo-3-(3-propylpyridin-2-yl)cyclohex-1-ene-1-carbonitrile] registered a 50% effective concentration (EC50) of 173 nM.
Under `COC1(c2nc(C)c(-c3ccccn3)s2)C=C(C#N)C(=O)C(C)(C)C1` (single isomer, unassigned) [Compound 99, 3-methoxy-5,5-dimethyl-3-[4-methyl-5-(pyridin-2-yl)-1,3-thiazol-2-yl]-6-oxocyclohex-1-ene-1-carbonitrile] stands 66 nM; under `COC1(c2nc(C)c(Br)s2)C=C(C#N)C(=O)C(C)(C)C1` (single isomer, unassigned) [Compound 98, 3-(5-bromo-4-methyl-1,3-thiazol-2-yl)-3-methoxy-5,5-dimethyl-6-oxocyclohex-1-ene-1-carbonitrile], 79 nM; under `COC1(c2ncc(F)cc2-c2cnc(C)c(F)c2)C=C(C#N)C(=O)C(C)(C)C1` (single isomer, unassigned) [Compound 230, 3-(5,5′-difluoro-6′-methyl[3,3′-bipyridin]-2-yl)-3-methoxy-5,5-dimethyl-6-oxocyclohex-1-ene-1-carbonitrile], 16 nM.
For `COC1(c2ncccc2-c2cnn(C)c2)C=C(C#N)C(=O)C(C)(C)C1` (single isomer, unassigned) [Compound 23, 3-methoxy-5,5-dimethyl-3-(3-(1-methyl-1H-pyrazol-4-yl)pyridin-2-yl)-6-oxocyclohex-1-enecarbonitrile], the midpoint of the response, the EC50, lay at 56 nM. This EC50 lies about 3.5-fold higher than the previous one.
For `COC1(c2ncc(Cl)cc2Cl)C=C(C#N)C(=O)C(C)(C)C1` (single isomer, unassigned) [Compound 225, 3-(3,5-dichloropyridin-2-yl)-3-methoxy-5,5-dimethyl-6-oxocyclohex-1-ene-1-carbonitrile] the value was 12 nM; for `COC1(c2ncc(F)cc2-c2ccn3ncnc3c2)C=C(C#N)C(=O)C(C)(C)C1` (stereo not drawn) [Compound 188, 3-[5-fluoro-3-([1,2,4]triazolo[1,5-a]pyridin-7-yl)pyridin-2-yl]-3-methoxy-5,5-dimethyl-6-oxocyclohex-1-ene-1-carbonitrile], 23 nM; for `COC1(c2ccc(C)nc2C)C=C(C#N)C(=O)C(C)(C)C1` (stereo not drawn) [Compound 29, 3-(2,6-dimethylpyridin-3-yl)-3-methoxy-5,5-dimethyl-6-oxocyclohex-1-enecarbonitrile], 91 nM.
Consider `COC1(c2ncc(Cl)cc2C(F)F)C=C(C#N)C(=O)C(C)(C)C1` (single isomer, unassigned) [Compound 206, 3-[5-chloro-3-(difluoromethyl)pyridin-2-yl]-3-methoxy-5,5-dimethyl-6-oxocyclohex-1-ene-1-carbonitrile], for which the EC50 worked out at 159 nM.
Under `CCOC1(c2ncccc2C(F)(F)F)C=C(C#N)C(=O)C(C)(C)C1` (single isomer, unassigned) [Compound 35, 3-ethoxy-5,5-dimethyl-6-oxo-3-(3-(trifluoromethyl)py-ridin-2-yl)cyclohex-1-enecarbonitrile] stands 39 nM.
Compound `COC1(c2ncc(F)cc2-c2c(C)nn(C)c2C)C=C(C#N)C(=O)C(C)(C)C1` (stereo not drawn) [Compound 187, 3-[5-fluoro-3-(1,3,5-trimethyl-1H-pyrazol-4-yl)pyridin-2-yl]-3-methoxy-5,5-dimethyl-6-oxocyclohex-1-ene-1-carbonitrile] displayed an EC50 of 77 nM.
As for `COC1(c2ncccc2OC(F)(F)F)C=C(C#N)C(=O)C(C)(C)C1` (single isomer, unassigned) [Compound 41, 3-methoxy-5,5-dimethyl-6-oxo-3-(3-(trifluoromethoxy)py-ridin-2-yl)cyclohex-1-enecarbonitrile], the EC50 is 11 nM.
For `COC1(c2ncc(F)cc2-c2cccnc2C)C=C(C#N)C(=O)C(C)(C)C1` (single isomer, unassigned) [Compound 79, 3-[5-fluoro-3-(2-methyl-3-pyridyl)-2-pyridyl]-3-methoxy-5,5-dimethyl-6-oxo-cyclohexene-1-carbonitrile] the value was 74 nM; for `COC1(c2cccc(-c3cnn(C)c3)n2)C=C(C#N)C(=O)C(C)(C)C1` (stereo not drawn) [Compound 111, 3-methoxy-5,5-dimethyl-3-[6-(1-methyl-1H-pyrazol-4-yl)pyridin-2-yl]-6-oxocyclohex-1-ene-1-carbonitrile], 65 nM.
`COC1(c2ncc(F)cc2-c2ccnc(C)c2C)C=C(C#N)C(=O)C(C)(C)C1` (single isomer, unassigned) [Compound 82, 3-[3-(2,3-dimethyl-4-pyridyl)-5-fluoro-2-pyridyl]-3-methoxy-5,5-dimethyl-6-oxo-cyclohexene-1-carbonitrile] yielded an EC50 of 52 nM.
On to `COC1(c2ncc(F)cc2-c2ccc3nccn3c2)C=C(C#N)C(=O)C(C)(C)C1` (single isomer, unassigned) [Compound 226, 3-[5-fluoro-3-(imidazo[1,2-a]pyridin-6-yl)pyridin-2-yl]-3-methoxy-5,5-dimethyl-6-oxocyclohex-1-ene-1-carbonitrile], for which the midpoint of the response, the EC50, lay at 13 nM.
Compound `CC1(C)CC(O)(c2ccc(C(F)(F)F)cn2)C=C(C#N)C1=O` (stereo not drawn) [Compound 24, 3-hydroxy-5,5-dimethyl-6-oxo-3-[5-(trifluoromethyl)-2-pyridyl]cyclo-hexene-1-carbonitrile] showed an EC50 above 10000 nM.
With `COC1(c2ncc(F)cc2-c2cn(C)nc2C)C=C(C#N)C(=O)C(C)(C)C1` (stereo not drawn) [Compound 172, 3-[3-(1,3-dimethyl-1H-pyrazol-4-yl)-5-fluoropyridin-2-yl]-3-methoxy-5,5-dimethyl-6-oxocyclohex-1-ene-1-carbonitrile], the EC50 was determined as 8 nM. In other words, the single-digit nanomolar range.
For `COC1(c2ncc(F)cc2-c2ccc(F)cc2)C=C(C#N)C(=O)C(C)(C)C1` (single isomer, unassigned) [Compound 70, 3-[5-fluoro-3-(4-fluorophenyl)pyridin-2-yl]-3-methoxy-5,5-dimethyl-6-oxocyclohex-1-ene-1-carbonitrile] the value was 15 nM.
Under `COC1(c2ncccc2C(F)(F)F)C=C(C#N)C(=O)C2(CC2)C1` (stereo not drawn) [Compound 133, 7-methoxy-4-oxo-7-[3-(trifluoromethyl)pyridin-2-yl]spiro[2.5]oct-5-ene-5-carbonitrile] stands 76 nM; under `COC1(c2ccc(Br)cn2)C=C(C#N)C(=O)C(C)(C)C1` (stereo not drawn) [Compound 113, 3-(5-bromopyridin-2-yl)-3-methoxy-5,5-dimethyl-6-oxocyclohex-1-ene-1-carbonitrile], 343 nM; under `COC1(c2ncc(Cl)cc2C(F)F)C=C(C#N)C(=O)C(C)(C)C1` (stereo not drawn) [Compound 158, 3-[5-chloro-3-(difluoromethyl)pyridin-2-yl]-3-methoxy-5,5-dimethyl-6-oxocyclohex-1-ene-1-carbonitrile], 21 nM.
Regarding `COC1(c2ncc(F)cc2-c2cncc(C(F)(F)F)c2)C=C(C#N)C(=O)C(C)(C)C1` (single isomer, unassigned) [Compound 87, 3-[5-fluoro-3-[5-(trifluoromethyl)-3-pyridyl]-2-pyridyl]-3-methoxy-5,5-dimethyl-6-oxo-cyclohexene-1-carbonitrile], the EC50 stood at 17 nM. The EC50 values of the last two compounds are within 1.5-fold of each other.
With `COC1(c2nccs2)C=C(C#N)C(=O)C(C)(C)C1` (single isomer, unassigned) [Compound 39, 3-methoxy-5,5-dimethyl-6-oxo-3-(thiazol-2-yl)cyclohex-1-enecarbonitrile], the EC50 was found to be 125 nM. Compared with the last compound, the EC50 is about 7.4-fold higher.
`COC1(c2cccc(-c3cnn(C)c3)n2)C=C(C#N)C(=O)C2(CC2)C1` (stereo not drawn) [Compound 126, 7-methoxy-7-[6-(1-methyl-1H-pyrazol-4-yl)pyridin-2-yl]-4-oxospiro[2.5]oct-5-ene-5-carbonitrile] showed an EC50 of 85 nM.
For `COC1(c2ncc(F)cc2C)C=C(C#N)C(=O)C2(CCCC2)C1` (stereo not drawn) [Compound 149, 9-(5-fluoro-3-methylpyridin-2-yl)-9-methoxy-6-oxospiro[4.5]dec-7-ene-7-carbonitrile] the value was 201 nM.
`COC1(c2ncc(F)cc2-c2cnn(C3CCCC3)c2)C=C(C#N)C(=O)C(C)(C)C1` (single isomer, unassigned) [Compound 83, 3-[3-(1-cyclopentylpyrazol-4-yl)-5-fluoro-2-pyridyl]-3-methoxy-5,5-dimethyl-6-oxo-cyclohexene-1-carbonitrile] displayed an EC50 of 70 nM.
For `COC1(c2ncccc2OC(F)(F)F)C=C(C#N)C(=O)C(C)(C)C1` (stereo not drawn) [Compound 147, 3-methoxy-5,5-dimethyl-6-oxo-3-[3-(trifluoromethoxy)pyridin-2-yl]cyclohex-1-ene-1-carbonitrile] the value was 22 nM; for `COC1(c2ncc(F)cc2-c2ccn3ncnc3c2)C=C(C#N)C(=O)C(C)(C)C1` (stereo not drawn) [Compound 190, 3-[5-fluoro-3-([1,2,4]triazolo[1,5-a]pyridin-7-yl)pyridin-2-yl]-3-methoxy-5,5-dimethyl-6-oxocyclohex-1-ene-1-carbonitrile], 1680 nM.
Take `COC1(c2ncc(F)cc2C(F)(F)F)C=C(C#N)C(=O)C(C)(C)C1` (single isomer, unassigned) [Compound 26, 3-(5-fluoro-3-(trifluoromethyl)py-ridin-2-yl)-3-methoxy-5,5-dimethyl-6-oxocyclohex-1-enecarbonitrile]: the response was half-maximal at 24 nM (EC50).
For the compound `COC1(c2cccc(-c3cncnc3)n2)C=C(C#N)C(=O)C(C)(C)C1` (stereo not drawn) [Compound 117, 3-methoxy-5,5-dimethyl-6-oxo-3-[6-(pyrimidin-5-yl)pyridin-2-yl]cyclohex-1-ene-1-carbonitrile], the EC50 worked out at 34 nM.
Regarding `COC1(c2nc(C)cs2)C=C(C#N)C(=O)C2(CC2)C1` (single isomer, unassigned) [Compound 59, 7-methoxy-4-7-(4-methyl-1,3-thiazol-2-yl)-4-oxospiro[2.5]oct-5-ene-5-carbonitrile], the EC50 was 261 nM.
